One assay addresses T1, AOC3 (Homo sapiens, UniProt Q16853).
T1 construct: expressed in transfected cells; host or cells: CHO cells
T1 sequence (Q16853 1-763): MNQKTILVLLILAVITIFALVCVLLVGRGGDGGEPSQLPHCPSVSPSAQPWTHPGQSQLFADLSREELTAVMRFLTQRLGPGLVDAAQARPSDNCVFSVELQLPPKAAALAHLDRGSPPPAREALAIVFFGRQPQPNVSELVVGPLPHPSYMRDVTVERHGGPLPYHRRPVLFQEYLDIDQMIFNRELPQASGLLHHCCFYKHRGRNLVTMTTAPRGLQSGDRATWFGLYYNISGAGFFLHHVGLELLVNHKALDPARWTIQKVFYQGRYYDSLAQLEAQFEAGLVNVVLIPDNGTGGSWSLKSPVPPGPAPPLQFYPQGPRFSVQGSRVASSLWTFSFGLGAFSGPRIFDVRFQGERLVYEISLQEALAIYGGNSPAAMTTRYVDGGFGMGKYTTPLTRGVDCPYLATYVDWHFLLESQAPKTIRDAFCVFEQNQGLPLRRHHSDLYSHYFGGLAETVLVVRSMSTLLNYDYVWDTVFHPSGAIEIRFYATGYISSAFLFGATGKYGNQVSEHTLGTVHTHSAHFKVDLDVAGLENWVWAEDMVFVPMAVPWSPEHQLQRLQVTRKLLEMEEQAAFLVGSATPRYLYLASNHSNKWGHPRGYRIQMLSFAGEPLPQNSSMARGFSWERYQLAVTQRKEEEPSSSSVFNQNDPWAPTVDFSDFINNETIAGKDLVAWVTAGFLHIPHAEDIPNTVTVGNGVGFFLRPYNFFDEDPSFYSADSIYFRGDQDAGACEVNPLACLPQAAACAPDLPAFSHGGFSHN
As to the kind of experiment: AOC3 biochemical assay (MAO-Glo). As for the experimental part:
As substrate a derivate of the beetle luciferin ((4S)-4,5-dihydro-2-(6-hydroxybenzothiazolyl)-4-thiazole-carboxylic acid) is used, which is oxidized at a primary amine moiety. After a spontaneous elimination and a catalyzed esterase reaction, the turnover of the luciferine by the luciferase is recorded as a signal of AOC3 activity.
Recombinant CHO cells, overexpressing the human (1500 cells/well), mouse (1000 cells/well) or rat (500 cells/well) AOC3 enzyme are diluted in reaction buffer and added in a volume of 15 μL to the wells. After incubation for 20 minutes at 37° C., 2 μL of MAO substrate (dissolved in DMSO at 16 mM, adjusted to assay concentration in reaction buffer to a final assay concentration of 20 μM) is added and further incubated for 60 minutes at 37° C. The turnover of the substrate is determined by the addition of 20 μL of the detection-mix which was generated by the addition of reconstitution buffer with esterase (PROMEGA, #V1402) to the luciferine detection reagent (PROMEGA, #V1402).

In another assay the target is T2, AOC1 (Homo sapiens, UniProt P19801).
T2 construct: purchased R&D Systems 8297-AO-010
T2 sequence (P19801 20-751): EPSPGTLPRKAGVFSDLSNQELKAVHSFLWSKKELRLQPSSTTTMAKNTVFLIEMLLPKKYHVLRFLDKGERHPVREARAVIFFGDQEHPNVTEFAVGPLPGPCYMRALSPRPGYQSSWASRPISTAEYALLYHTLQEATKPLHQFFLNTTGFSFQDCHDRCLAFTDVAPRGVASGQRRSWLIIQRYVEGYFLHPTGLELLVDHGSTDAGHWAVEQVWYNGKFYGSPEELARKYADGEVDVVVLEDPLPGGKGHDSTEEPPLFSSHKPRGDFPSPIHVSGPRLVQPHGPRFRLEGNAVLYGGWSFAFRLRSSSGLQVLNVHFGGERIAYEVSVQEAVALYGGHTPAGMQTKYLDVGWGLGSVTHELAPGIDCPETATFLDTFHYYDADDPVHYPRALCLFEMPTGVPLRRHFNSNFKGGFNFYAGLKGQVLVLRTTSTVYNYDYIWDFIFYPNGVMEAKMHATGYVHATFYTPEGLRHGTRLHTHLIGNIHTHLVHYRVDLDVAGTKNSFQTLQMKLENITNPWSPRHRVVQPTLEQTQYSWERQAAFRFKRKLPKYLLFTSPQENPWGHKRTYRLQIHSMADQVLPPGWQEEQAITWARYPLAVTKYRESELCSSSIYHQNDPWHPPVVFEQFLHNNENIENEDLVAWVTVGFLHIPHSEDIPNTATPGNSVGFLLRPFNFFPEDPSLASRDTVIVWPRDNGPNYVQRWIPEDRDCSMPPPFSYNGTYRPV
The assay is described as follows: AOC1 biochemical assay (Amplex Red). The source says: The Amplex® Red Assay (available from Thermo Fisher Scientific) provides a sensitive method for the detection of H2O2 generated during enzymatic reactions like the amine oxidation catalyzed by AOC1.

The mark [1] stands for this setting: Table 2, comparison with compounds of EP 2 695 881, read-out: IC50 AOC3.
The mark [2] stands for this setting: Table 2, comparison with compounds of EP 2 695 881, read-out: IC50 AOC1.

For orientation: IC50 means the midpoint of a concentration-inhibition curve.

Structures are written as SMILES. Like-named read-outs stand apart in the source and are kept apart here.

Take `CC(=O)N1CCC(COc2ncc(-c3cccc(COC(=O)NC(=N)N)c3F)cn2)CC1` [Ex. 11, p. 221, reference compound]: the values for the IC50 on AOC3 (setting [1]) and at AOC1 (setting [2]) were 1 nM and 6 nM, respectively.

Take `COC1CN(c2ncc(-c3cccc(COC(=O)NC(=N)N)c3F)cn2)C1` [Ex. 63, p. 227, reference compound]: the IC50 was 1 nM on AOC3 (setting [1]) and 100 nM at AOC1 (setting [2]).

For the molecule `N=C(N)NC(=O)OCc1cccc(-c2cnc(OCC3CCN(C(=O)C4CC4)CC3)nc2)c1F` [Ex. 74, p. 229, reference compound], the IC50 on AOC3 (setting [1]) turned out to be 1 nM; at AOC1 (setting [2]) it was 8 nM.

With `N=C(N)NC(=O)OCc1cccc(-c2cnc(N3CCOCC3)nc2)c1F` [Ex. 81, p. 229, reference compound], the IC50 on AOC3 (setting [1]) was determined as 1 nM; on AOC1 (setting [2]) it was 174 nM.

For `CCOc1ncc(-c2cccc(COC(=O)NC(=N)N)c2F)cn1` [Ex. 136, p. 235, reference compound], the IC50 on AOC3 (setting [1]) was 6 nM; at AOC1 (setting [2]), 60 nM.

In the case of `COCCOc1ncc(-c2cccc(COC(=O)NC(=N)N)c2F)cn1` [Ex. 197, p. 243, reference compound], the figures for the IC50 at AOC3 (setting [1]) and on AOC1 (setting [2]) were 6 nM and 97 nM, respectively.

On to `Cc1ncc(-c2cccc(COC(=O)NC(=N)N)n2)cn1` [Example 01], for which the IC50 at AOC3 (Table 1, read-out: AOC3 IC50) was found to be 27 nM; at AOC1 (Table 1, read-out: AOC1 IC50), 7600 nM.

As to `COc1ncc(-c2cccc(COC(=O)NC(=N)N)n2)cn1` [Example 02], the IC50 on AOC3 (Table 1, read-out: AOC3 IC50) was 10 nM; on AOC1 (Table 1, read-out: AOC1 IC50), 8070 nM.

`N=C(N)NC(=O)OCc1cccc(-c2cnc(C3CC3)nc2)n1` [Example 03, [6-(2-cyclopropylpyrimidin-5-yl)-2-pyridyl]methyl N-carbamimidoylcarbamate]: the IC50 at AOC3 (Table 1, read-out: AOC3 IC50) came out at 8 nM; on AOC1 (Table 1, read-out: AOC1 IC50) it was 8030 nM.

Regarding `CN(C)c1ncc(-c2cccc(COC(=O)NC(=N)N)n2)cn1` [Example 04], the IC50 worked out at 5 nM at AOC3 (Table 1, read-out: AOC3 IC50) and 1720 nM on AOC1 (Table 1, read-out: AOC1 IC50).

`CCOc1ncc(-c2cccc(COC(=O)NC(=N)N)n2)cn1` [Example 05]: the IC50 came to 15 nM at AOC3 (Table 1, read-out: AOC3 IC50) and 2390 nM at AOC1 (Table 1, read-out: AOC1 IC50).

Regarding `CSc1ncc(-c2cccc(COC(=O)NC(=N)N)n2)cn1` [Example 06], the IC50 on AOC3 (Table 1, read-out: AOC3 IC50) came to 15 nM; at AOC1 (Table 1, read-out: AOC1 IC50), 10200 nM.

As to `CCCOc1ncc(-c2cccc(COC(=O)NC(=N)N)n2)cn1` [Example 07, [6-(2-propoxypyrimidin-5-yl)-2-pyridyl]methyl N-carbamimidoylcarbamate], the IC50 is 5 nM on AOC3 (Table 1, read-out: AOC3 IC50) and 2010 nM at AOC1 (Table 1, read-out: AOC1 IC50).

Regarding `C#CCCOc1ncc(-c2cccc(COC(=O)NC(=N)N)n2)cn1` [Example 08, [6-(2-but-3-ynoxypyrimidin-5-yl)-2-pyridyl]methyl N-carbamimidoylcarbamate], the half-maximal inhibitory concentration (IC50) was 4 nM at AOC3 (Table 1, read-out: AOC3 IC50) and 2690 nM on AOC1 (Table 1, read-out: AOC1 IC50).

As to `COCCNc1ncc(-c2cccc(COC(=O)NC(=N)N)n2)cn1` [Example 09], the IC50 on AOC3 (Table 1, read-out: AOC3 IC50) is 7 nM; on AOC1 (Table 1, read-out: AOC1 IC50), 1410 nM.

As for `COCCOc1ncc(-c2cccc(COC(=O)NC(=N)N)n2)cn1` [Example 10], the IC50 is 11 nM at AOC3 (Table 1, read-out: AOC3 IC50) and 3480 nM at AOC1 (Table 1, read-out: AOC1 IC50).

With `C[C@@H](F)COc1ncc(-c2cccc(COC(=O)NC(=N)N)n2)cn1` [Example 11], the IC50 on AOC3 (Table 1, read-out: AOC3 IC50) was determined as 5 nM; on AOC1 (Table 1, read-out: AOC1 IC50), 2390 nM.

`N=C(N)NC(=O)OCc1cccc(-c2cnc(C3CCOCC3)nc2)n1` [Example 12]: the half-maximal inhibitory concentration (IC50) was determined as 5 nM on AOC3 (Table 1, read-out: AOC3 IC50) and 7530 nM on AOC1 (Table 1, read-out: AOC1 IC50).

Regarding `COC1CN(c2ncc(-c3cccc(COC(=O)NC(=N)N)n3)cn2)C1` [Example 13], the IC50 at AOC3 (Table 1, read-out: AOC3 IC50) was 2 nM; on AOC1 (Table 1, read-out: AOC1 IC50), 1480 nM.

Turning to `N=C(N)NC(=O)OCc1cccc(-c2cnc(N3CCOCC3)nc2)n1` [Example 14], the IC50 at AOC3 (Table 1, read-out: AOC3 IC50) was 3 nM; at AOC1 (Table 1, read-out: AOC1 IC50), 1340 nM.

In the case of `N=C(N)NC(=O)OCc1cccc(-c2cnc(O[C@H]3CCOC3)nc2)n1` [Example 15], the IC50 is 8 nM on AOC3 (Table 1, read-out: AOC3 IC50) and 5190 nM at AOC1 (Table 1, read-out: AOC1 IC50).

In the case of `CC(F)(F)CNc1ncc(-c2cccc(COC(=O)NC(=N)N)n2)cn1` [Example 19], at AOC3 (Table 1, read-out: AOC3 IC50), the IC50 was determined as 9 nM.

The values are drawn from patent publication US9926292B2, “Pyridinyl derivatives, pharmaceutical compositions and uses thereof” (Boehringer Ingelheim International GmbH, priority 2016, dated 2018).
